US20240025862A1, “SUBSTITUTED N-PHENYLURACILS AND SALTS THEREOF, AND USE THEREOF AS HERBICIDAL ACTIVE SUBSTANCES” (Bayer Aktiengesellschaft, priority 2020, published 2024)
Values belong to the molecule of their own block, whether it stands above or below them.

Legend:
Format in all cases: in vivo
[1] = tested on: Abutilon theophrasti (ABUTH); assay: Post-emergence herbicidal action, greenhouse pot test; details: rated visually after about 3 weeks vs untreated controls, 100% = plants have died
Method in brief: (§1)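 Greenhouse-grown weeds in sandy loam were sprayed post-emergence at the one-leaf stage, 2–3 weeks after sowing. Compounds were formulated as WP or EC in water with 0.5% additive at 600 l/ha, at rates of 20 g/ha or less. Visual rating after about 3 weeks used a scale from 0% (like untreated control) to 100% (plants dead).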

[2] = tested on: Amaranthus retroflexus (AMARE); assay: as above; details: rated visually after about 3 weeks vs untreated controls, 100% = plants have died
Method in brief: as §1

Avena fatua (AVEFA) = assay: as above; details: rated visually after about 3 weeks vs untreated controls, 100% = plants have died
Method in brief: as §1

Lolium rigidum (LOLRI) = assay: as above; details: dosage 20 g/ha
Method in brief: as §1

[3] = tested on: Pharbitis purpurea (PHBPU); assay: as above
Method in brief: as §1

[4] = tested on: Polygonum convolvulus (POLCO); assay: as above
Method in brief: as §1

Veronica persica (VERPE) = assay: as above
Method in brief: as §1

Viola tricolor (VIOTR) = assay: as above
Method in brief: as §1

[5] = tested on: Alopecurus myosuroides (ALOMY); assay: Post-emergence herbicidal action, greenhouse pot test (also comparative test C); details: rated visually after about 3 weeks vs untreated controls, 100% = plants have died
Method in brief: (§2)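 Greenhouse pot plants in sandy loam were sprayed post-emergence at the one-leaf stage (2–3 weeks after sowing) with WP or EC formulations plus 0.5% additive at 600 l/ha water. Activity was rated visually after about 3 weeks versus untreated controls (100% = dead, 0% = like control); rates were 20 g/ha or less, and 5 g/ha or less in the comparative test.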

[6] = tested on: Echinochloa crus-galli (ECHCG); assay: as above
Method in brief: as §2

[7] = tested on: Matricaria inodora (MATIN); assay: as above
Method in brief: as §2

Setaria viridis (SETVI) = assay: as above
Method in brief: as §2

[8] = tested on: Triticum aestivum (TRZAS); assay: Post-emergence crop plant compatibility, greenhouse pot test; details: vs untreated controls
Method in brief: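 Crop plants grown in sandy loam in the greenhouse were sprayed post-emergence at the one-leaf stage, 2–3 weeks after sowing, with WP or EC formulations as aqueous suspension/emulsion plus 0.5% additive at 600 l/ha. Damage was rated visually about 3 weeks later versus untreated controls (0% = like control, 100% = plants dead).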

Oryza sativa (ORYSA) = assay: Post-emergence crop plant compatibility, greenhouse pot test (also comparative test C); details: for Post-emergence action against ORYSA (crop plant compatibility): vs untreated controls
Method in brief: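 Rice and other crops sprayed post-emergence at one-leaf stage (2–3 weeks after sowing) with WP or EC formulations plus 0.5% additive at 600 l/ha water. Visual rating about 3 weeks later versus untreated controls (100% = dead, 0% = like control); suffixes a–c denote different doses.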

- Post-emergence action against TRZAS (crop plant compatibility) ([8]; 1.25 g/ha): 0%
- Post-emergence action against ORYSA (crop plant compatibility) (Oryza sativa (ORYSA); 1.25 g/ha): 20%
Structure (SMILES): Cn1c(C(F)(F)F)cc(=O)n(-c2cc(Oc3ccccc3OCC(=O)OCC3CCCO3)c(Cl)cc2F)c1=O (stereo not shown) [I.7-71, Tetrahydrofuran-2-ylmethyl (2-{2-chloro-4-fluoro-5-[3-methyl-2,6-dioxo-4-(trifluoromethyl)-3,6-dihydropyrimidin-1(2H)-yl]phenoxy}phenoxy)acetate]
- pest or weed control at 1.25 g/ha ([1]; Abutilon theophrasti, 504 h, 1.25 g/ha, read-out: Post-emergence action at 1.25 g/ha against ABUTH in %): 100%
- pest or weed control at 5 g/ha ([1]; Abutilon theophrasti, 504 h, 5 g/ha, read-out: Post-emergence action at 5 g/ha against ABUTH in %): 100%
- pest or weed control at 20 g/ha ([1]; Abutilon theophrasti, 504 h, 20 g/ha, read-out: Post-emergence action at 20 g/ha against ABUTH in %): 100%
- pest or weed control at 1.25 g/ha ([2]; Amaranthus retroflexus, 504 h, 1.25 g/ha, read-out: Post-emergence action at 1.25 g/ha against AMARE in %): 100%
- pest or weed control at 5 g/ha ([2]; Amaranthus retroflexus, 504 h, 5 g/ha, read-out: Post-emergence action at 5 g/ha against AMARE in %): 100%
- pest or weed control at 20 g/ha ([2]; Amaranthus retroflexus, 504 h, 20 g/ha, read-out: Post-emergence action at 20 g/ha against AMARE in %): 100%
- pest or weed control at 20 g/ha (Avena fatua (AVEFA); Avena fatua, 504 h, 20 g/ha, read-out: Post-emergence action at 20 g/ha against AVEFA in %): 90%
- pest or weed control at 20 g/ha (Lolium rigidum (LOLRI); Lolium rigidum, 504 h, read-out: Post-emergence action against LOLRI in %): 80%
- pest or weed control at 1.25 g/ha ([3]; Ipomoea purpurea, 504 h, dosage 1.25 g/ha, read-out: Post-emergence action against PHBPU in %): 100%
- pest or weed control at 5 g/ha ([3]; Ipomoea purpurea, 504 h, dosage 5 g/ha, read-out: Post-emergence action against PHBPU in %): 100%
- pest or weed control at 20 g/ha ([3]; Ipomoea purpurea, 504 h, dosage 20 g/ha, read-out: Post-emergence action against PHBPU in %): 100%
- pest or weed control at 5 g/ha ([4]; Fallopia convolvulus, 504 h, dosage 5 g/ha, read-out: Post-emergence action against POLCO in %): 100%
- pest or weed control at 20 g/ha ([4]; Fallopia convolvulus, 504 h, dosage 20 g/ha, read-out: Post-emergence action against POLCO in %): 100%
- pest or weed control at 1.25 g/ha (Veronica persica (VERPE); Veronica persica, 504 h, 1.25 g/ha, read-out: Post-emergence action against VERPE): 100%
- pest or weed control at 5 g/ha (Veronica persica (VERPE); Veronica persica, 504 h, 5 g/ha, read-out: Post-emergence action against VERPE): 100%
- pest or weed control at 20 g/ha (Veronica persica (VERPE); Veronica persica, 504 h, 20 g/ha, read-out: Post-emergence action against VERPE): 100%
- pest or weed control at 1.25 g/ha (Viola tricolor (VIOTR); Viola tricolor, 504 h, 1.25 g/ha, read-out: Post-emergence action against VIOTR): 100%
- pest or weed control at 5 g/ha (Viola tricolor (VIOTR); Viola tricolor, 504 h, 5 g/ha, read-out: Post-emergence action against VIOTR): 100%
- pest or weed control at 20 g/ha (Viola tricolor (VIOTR); Viola tricolor, 504 h, 20 g/ha, read-out: Post-emergence action against VIOTR): 100%
- pest or weed control at 5 g/ha ([5]; Alopecurus myosuroides, 504 h, 5 g/ha, read-out: Post-emergence action at 5 g/ha against ALOMY in %): 80%
- pest or weed control at 20 g/ha ([5]; Alopecurus myosuroides, 504 h, 20 g/ha, read-out: Post-emergence action at 20 g/ha against ALOMY in %): 80%
- Post-emergence action at 1.25 g/ha against ECHCG in % ([6]; 1.25 g/ha, rated visually after about 3 weeks vs untreated controls, 100% = plants have died): 100%
- pest or weed control at 5 g/ha ([6]; Echinochloa crus-galli, 504 h, dosage 5 g/ha, read-out: Post-emergence action against ECHCG in %): 100%
- pest or weed control at 20 g/ha ([6]; Echinochloa crus-galli, 504 h, dosage 20 g/ha, read-out: Post-emergence action against ECHCG in %): 100%
- pest or weed control at 1.25 g/ha ([7]; Tripleurospermum inodorum, 504 h, dosage 1.25 g/ha, read-out: Post-emergence action against MATIN in %): 80%
- pest or weed control at 20 g/ha ([7]; Tripleurospermum inodorum, 504 h, dosage 20 g/ha, read-out: Post-emergence action against MATIN in %): 100%
- pest or weed control at 20 g/ha (Setaria viridis (SETVI); Setaria viridis, 504 h, 20 g/ha, read-out: Post-emergence action against SETVI): 100%
- pest or weed control at 1.25 g/ha (Setaria viridis (SETVI); Setaria viridis, 504 h, dosage 1.25 g/ha, read-out: Post-emergence action against SETVI in %): 100%
- pest or weed control at 5 g/ha (Setaria viridis (SETVI); Setaria viridis, 504 h, dosage 5 g/ha, read-out: Post-emergence action against SETVI in %): 100%

- Post-emergence action against TRZAS (crop plant compatibility) ([8]; 1.25 g/ha): 20%
- Post-emergence action against TRZAS (crop plant compatibility) ([8]; 5 g/ha): 20%
- Post-emergence action against ORYSA (crop plant compatibility) (Oryza sativa (ORYSA); 1.25 g/ha): 0%
- Post-emergence action against ORYSA (crop plant compatibility) (Oryza sativa (ORYSA); 5 g/ha): 0%
- Post-emergence action against ORYSA in % (Oryza sativa (ORYSA); 20 g/ha, crop plant compatibility): 20%
Structure (SMILES): Cn1c(C(F)(F)F)cc(=O)n(-c2cc(Oc3ccccc3OCC(=O)OCc3cccnn3)c(C#N)cc2F)c1=O [I.9-291]
- Post-emergence action at 1.25 g/ha against ABUTH in % ([1]; 1.25 g/ha): 100%
- Post-emergence action at 5 g/ha against ABUTH in % ([1]; 5 g/ha): 100%
- Post-emergence action at 20 g/ha against ABUTH in % ([1]; 20 g/ha): 100%
- Post-emergence action at 1.25 g/ha against AMARE in % ([2]; 1.25 g/ha): 100%
- Post-emergence action at 5 g/ha against AMARE in % ([2]; 5 g/ha): 100%
- Post-emergence action at 20 g/ha against AMARE in % ([2]; 20 g/ha): 100%
- Post-emergence action at 5 g/ha against AVEFA in % (Avena fatua (AVEFA); 5 g/ha): 80%
- Post-emergence action at 20 g/ha against AVEFA in % (Avena fatua (AVEFA); 20 g/ha): 80%
- Post-emergence action against LOLRI in % (Lolium rigidum (LOLRI)): 90%
- Post-emergence action against PHBPU in % ([3]; dosage 1.25 g/ha): 100%
- Post-emergence action against PHBPU in % ([3]; dosage 5 g/ha): 100%
- Post-emergence action against PHBPU in % ([3]; dosage 20 g/ha): 100%
- Post-emergence action against POLCO in % ([4]; dosage 1.25 g/ha): 80%
- Post-emergence action against POLCO in % ([4]; dosage 5 g/ha): 90%
- Post-emergence action against POLCO in % ([4]; dosage 20 g/ha): 100%
- Post-emergence action against VERPE (Veronica persica (VERPE); 1.25 g/ha): 100%
- Post-emergence action against VERPE (Veronica persica (VERPE); 5 g/ha): 100%
- Post-emergence action against VERPE (Veronica persica (VERPE); 20 g/ha): 100%
- Post-emergence action against VIOTR (Viola tricolor (VIOTR); 1.25 g/ha): 100%
- Post-emergence action against VIOTR (Viola tricolor (VIOTR); 5 g/ha): 100%
- Post-emergence action against VIOTR (Viola tricolor (VIOTR); 20 g/ha): 100%
- Post-emergence action at 1.25 g/ha against ALOMY in % ([5]; 1.25 g/ha): 80%
- Post-emergence action at 5 g/ha against ALOMY in % ([5]; 5 g/ha): 90%
- Post-emergence action at 20 g/ha against ALOMY in % ([5]; 20 g/ha): 100%
- Post-emergence action against ECHCG in % ([6]; dosage 5 g/ha): 90%
- Post-emergence action against ECHCG in % ([6]; dosage 20 g/ha): 100%
- Post-emergence action against MATIN in % ([7]; dosage 5 g/ha): 80%
- Post-emergence action against MATIN in % ([7]; dosage 20 g/ha): 100%
- Post-emergence action against SETVI (Setaria viridis (SETVI); 20 g/ha): 100%
- Post-emergence action against SETVI in % (Setaria viridis (SETVI); dosage 1.25 g/ha): 100%
- Post-emergence action against SETVI in % (Setaria viridis (SETVI); dosage 5 g/ha): 100%
